# pIC50: −log10 of the molar value.
# Biological target: T1, TLR7 (Homo sapiens, UniProt Q9NYK1)
# T1 construct: expressed in transfected cells; host or cells: HEK cells carrying TLR7 and an NF-kB reporter read with Steady-Glo
# T1 sequence (Q9NYK1 27-1049): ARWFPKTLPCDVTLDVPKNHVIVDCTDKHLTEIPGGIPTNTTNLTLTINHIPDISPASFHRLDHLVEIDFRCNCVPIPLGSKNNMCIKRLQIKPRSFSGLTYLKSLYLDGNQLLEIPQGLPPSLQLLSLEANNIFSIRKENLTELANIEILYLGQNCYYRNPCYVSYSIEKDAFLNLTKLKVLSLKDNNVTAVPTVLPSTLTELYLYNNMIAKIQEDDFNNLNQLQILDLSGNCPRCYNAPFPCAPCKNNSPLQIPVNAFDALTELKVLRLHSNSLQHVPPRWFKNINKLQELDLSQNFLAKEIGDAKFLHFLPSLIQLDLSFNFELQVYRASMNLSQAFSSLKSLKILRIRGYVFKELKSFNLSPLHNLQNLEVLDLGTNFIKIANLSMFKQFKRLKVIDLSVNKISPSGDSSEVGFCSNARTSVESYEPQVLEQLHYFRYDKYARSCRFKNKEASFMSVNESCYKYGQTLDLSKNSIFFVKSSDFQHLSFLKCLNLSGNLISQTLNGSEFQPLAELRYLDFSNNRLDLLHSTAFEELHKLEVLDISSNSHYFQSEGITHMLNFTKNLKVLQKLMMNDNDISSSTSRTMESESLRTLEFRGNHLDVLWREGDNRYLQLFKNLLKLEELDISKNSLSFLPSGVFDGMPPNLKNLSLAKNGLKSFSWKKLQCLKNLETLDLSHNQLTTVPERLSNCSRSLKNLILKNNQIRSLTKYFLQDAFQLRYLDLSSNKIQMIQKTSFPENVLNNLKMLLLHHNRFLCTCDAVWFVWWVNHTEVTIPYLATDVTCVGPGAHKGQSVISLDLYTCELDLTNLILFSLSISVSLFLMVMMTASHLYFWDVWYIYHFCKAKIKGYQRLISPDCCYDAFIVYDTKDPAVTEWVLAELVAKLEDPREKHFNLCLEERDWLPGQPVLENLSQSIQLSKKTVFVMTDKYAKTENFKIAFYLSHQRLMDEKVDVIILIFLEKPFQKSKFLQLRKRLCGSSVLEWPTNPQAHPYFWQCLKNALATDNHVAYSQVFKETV
# Test: HEK Cell Assay (TLR7/NFKb HEK reporter cells, Steady-Glo)
# Type: cell-based
# Settings: compound 30 min, then R*48 agonist 5 hours, Steady-Glo readout, read-out: Potency
# Description: Example 32: HEK Cell Assay
# Into 384 CulturePlates (Corning 3707) was placed 5000 c/w of TLR7/NFKb HEK cells in 30 uL DMEM without Phenil red (gibco #31053) and 10% i.a. FCS and 2 mM L-ZGLutamin. The cells were incubated for 24 h at 37 degrees Celsius, 10% carbon dioxide and 90% relative humidity, 3 uL of controls, standards, and compounds were dispensed to wells, incubated for 30 min then 3 uL of R*48 agonist in 20 mM Hepes was added. After incubation for 5 hours, it was allowed to stand at room temperature for 15 min, 10 uL of Steady-Glo substrate reagent was added and shake assay plate for 5 min at 1500 rpm. The assay plate was allowed to sit for 30 min at room temperature and then read plate on EnVision.
row,SMILES,pIC50
1,"C[C@H]1C[C@@H](NC(=O)[C@@H](N)C(F)(F)F)C[C@H](c2ccc(C#N)c3nccnc23)C1 (racemic) [Compound 146, (2S)-2-amino-N-((1,cis-3cis-5,trans)-3-(8-cyanoquinoxalin-5-yl)-5-methylcyclohexyl)-3,3,3-trifluoropropanamide]",4.70 to 6.00
2,"C[C@@H]1C[C@@H](c2ccc(C#N)c3ncccc23)CN(CC(=O)N2CCC(N(C)C)CC2)C1 (relative stereo) [Compound 71, trans-5-(1-{2-[4-(dimethylamino)piperidin-1-yl]-2-oxoethyl}-5-methylpiperidin-3-yl) quinoline-8-carbonitrile]",4.70 to 6.00
3,CC1C[C@H](c2ccc(C#N)c3ncccc23)CN(C(=O)CCc2cccnc2)C1 (stereo partly shown) [Compound 25],4.70 to 6.00
4,"C[C@@H]1C[C@H](N)C[C@@H](c2ccc(C#N)c3nccnc23)C1 [Compound 124, 8-((1S,3S,5S)-3-amino-5-methylcyclohexyl)quinoxaline-5-carbonitrile]",< 4.70
5,"C[C@@H]1C[C@H](c2ccc(OC(F)(F)F)c3ncccc23)CN(C(=O)CC2CCN(C)CC2)C1 [Compound 103, 2-(1-Methyl-piperidin-4-yl)-1-[(3R,5R)-3-methyl-5-(8-trifluoromethoxy-quinolin-5-yl)-piperidin-1-yl]-ethanone]",4.70 to 6.00
6,"COC(=O)CCN1CC(C)CC(c2ccc(C#N)c3ncccc23)C1 (stereo not shown) [Compound 48, 3-[3-(8-Cyano-quinolin-5-yl)-5-methyl-piperidin-1-yl]-propionic acid methyl ester]",< 4.70
7,"C[C@H]1C[C@@H](NC(=O)CC(C)(C)C)C[C@H](c2ccc(C#N)c3nccnc23)C1 (racemic) [Compound 130, N-[(1,cis-3,trans-5,cis)-3-(8-cyanoquinoxalin-5-yl)-5-methylcyclohexyl]-3,3-dimethylbutanamide]",4.70 to 6.00
8,"CC(C)N1CCC(CC(=O)N2C[C@@H](C)C[C@@H](c3ccc(C#N)c4ncccc34)C2)CC1 [Compound 47, 5-{(3S,5S)-1-[2-(1-Isopropyl-piperidin-4-yl)-acetyl]-5-methyl-piperidin-3-yl}-quinoline-8-carbonitrile]",4.70 to 6.00
9,"CC(=O)N1C[C@H](C)C[C@H](c2ccc(C(F)(F)F)c3ncccc23)C1 (relative stereo) [Compound 10, cis-1-[3-Methyl-5-(8-trifluoromethyl-quinolin-5-yl)-piperidin-1-yl]-ethanone]",< 4.70
10,"CC1CC(c2ccc(C#N)c3ncccc23)CN(C(=O)CC2CCN(C)CC2)C1 (stereo in doubt) [Compound 55, 5-{(3S,5R)-5-Methyl-1-[2-(1-methyl-piperidin-4-yl)-acetyl]-piperidin-3-yl}-quinoline-8-carbonitrile]",> 6.00

# Continued, values first:
row,pIC50,SMILES
1,> 6.00,"C[C@@H]1C[C@H](N)C[C@H](c2ccc(C(F)(F)F)c3ncccc23)C1 [Compound 136, (1S,3S,5R)-3-methyl-5-(8-(trifluoromethyl)quinolin-5-yl)cyclohexanamine]"
2,> 6.00,CC1CC(c2ccc(C#N)c3ncccc23)CN(C(=O)CCC2CCN(C)CC2)C1 (stereo not shown) [Compound 23]
3,> 6.00,"C[C@H]1C[C@@H](N)C[C@@H](c2ccc(C#N)c3nccnc23)C1 (racemic) [Compound 120, 8-((S,3R,5R)-3-amino-5-methylcyclohexyl) quinoxaline-5-carbonitrile]"
4,> 6.00,"C[C@@H]1C[C@H](c2ccc(C#N)c3ncccc23)CN(C(=O)CN2CC3CCC2CN3)C1 (mixture of isomers) [Compound 116, 5-[(3R,5R)-1-(2-2,5-Diaza-bicyclo[2.2.2]oct-2-yl-acetyl)-5-methyl-piperidin-3-yl]-quinoline-8-carbonitrile]"
5,> 6.00,CC(C)N1CCC(CC(=O)N2C[C@H](C)C[C@H](c3ccc(C#N)c4ncccc34)C2)CC1 (racemic) [Compound 19]
6,> 6.00,"Cc1ccc([C@H]2C[C@@H](C)CN(C(=O)CC3C4CC3CN(C)C4)C2)c2cccnc12 (stereo partly drawn) [Compound 84, 2-(3-Methyl-3-aza-bicyclo [3.1.1]hept-6-yl)-1-[(3R,5R)-3-methyl-5-(8-methyl-quinolin-5-yl)-piperidin-1-yl]-ethanone]"

# Source: patent US11512069B2, “TLR7/8 antagonists and uses thereof” (Merck Patent GmbH, priority 2016, dated 2022)
